This note sets out measurements from PubChem BioAssay (NCI).

Test systems include A498 renal; OVCAR-5 ovarian; SNB-19 CNS; IGROV1 ovarian; SK-OV-3 ovarian; MDA-MB-231 breast; K-562 leukemia; MDA-MB-435; UACC-62 melanoma; HCC-2998 colon; LOX IMVI melanoma; A549 NSCLC; NCI-H226 lung.
Common to all, as to test: NCI tumour cell line growth inhibition, 48 h

The structures appear in SMILES notation.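 Grown in 96-well plates, cells were treated for 48 hours with each compound at five concentrations. Insufficient inhibition: endpoint recorded as highest concentration tested. TGI is the concentration that stops growth completely.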

Turning to `Cc1cc2nc(NS(=O)(=O)c3cc(C)c(Cl)cc3S)[nH]c2cc1C`, the TGI in the experiment with A498 renal, in the experiment with OVCAR-5 ovarian, in the experiment with SNB-19 CNS, in the experiment on IGROV1 ovarian, with SK-OV-3 ovarian and in the experiment on MDA-MB-231 breast was more than 100 µM throughout. Further, the TGI in the experiment with K-562 leukemia, in the experiment on MDA-MB-435, in the experiment on UACC-62 melanoma, in the experiment on HCC-2998 colon, with LOX IMVI melanoma and in the experiment with A549 NSCLC was more than 100 µM in each case.

In the case of `O=S(=O)(Nc1nc(-c2cc(O)c(O)c(O)c2)cs1)c1ccc(Cl)cc1Cl`, the TGI with A498 renal is more than 100 µM; in the experiment with OVCAR-5 ovarian, 33.4 µM; in the experiment on SNB-19 CNS it was more than 100 µM; with IGROV1 ovarian it was 45.9 µM; in the experiment with SK-OV-3 ovarian, more than 100 µM; with MDA-MB-231 breast, 44.9 µM. Moreover, the TGI in the experiment on K-562 leukemia was 48 µM; with MDA-MB-435, 56.9 µM; in the experiment on UACC-62 melanoma, more than 100 µM; in the experiment on LOX IMVI melanoma it was 33.6 µM; in the experiment on A549 NSCLC, more than 100 µM; with NCI-H226 lung, more than 100 µM.

On to `C/C=C/COc1cc(NC(=S)c2ccoc2C)ccc1OC`, for which the TGI in the experiment on A498 renal, in the experiment with OVCAR-5 ovarian, in the experiment on SNB-19 CNS, in the experiment with IGROV1 ovarian, with SK-OV-3 ovarian and in the experiment with MDA-MB-231 breast was more than 100 µM each time. Also, the TGI in the experiment on MDA-MB-435, in the experiment with UACC-62 melanoma, in the experiment with HCC-2998 colon, in the experiment with LOX IMVI melanoma, in the experiment with A549 NSCLC and in the experiment on NCI-H226 lung was more than 100 µM in each case.

In the case of `Cc1ccc(-c2nc3n(c2/C=N\N=C(N)N)CCS3)cc1`, the TGI in the experiment with A498 renal amounted to 30.5 µM; in the experiment on OVCAR-5 ovarian, 30.1 µM; in the experiment with SNB-19 CNS, 28.5 µM; with IGROV1 ovarian it was 28.3 µM; with SK-OV-3 ovarian, 29 µM; in the experiment on MDA-MB-231 breast, 29.9 µM. In addition, the TGI with K-562 leukemia was found to be 44.2 µM; in the experiment with MDA-MB-435, 28.9 µM; in the experiment with UACC-62 melanoma, 32.1 µM; in the experiment on HCC-2998 colon, 24.2 µM; with LOX IMVI melanoma, 31.9 µM; with A549 NSCLC, 29.5 µM.

`COc1ccc(C2c3c(-c4ccccc4)nn(-c4ccccc4)c3Oc3ncn(N)c(=N)c32)cc1OC` (stereo unspecified): the TGI in the experiment on A498 renal was 26 µM; with OVCAR-5 ovarian, 13.5 µM; with SNB-19 CNS, 19.9 µM; in the experiment with IGROV1 ovarian, 3.2 µM; with SK-OV-3 ovarian, 21.6 µM; in the experiment with MDA-MB-231 breast it was 3.8 µM. The TGI in the experiment on K-562 leukemia is more than 100 µM; in the experiment on MDA-MB-435, 4.2 µM; with UACC-62 melanoma, 3.72 µM; with HCC-2998 colon, 2.76 µM; in the experiment with A549 NSCLC, 4.81 µM; with NCI-H226 lung it was 7.44 µM.

Take `COc1cc(OC)c(NC2=NCCO2)cc1Cl`: the TGI in the experiment with A498 renal was 81.5 µM; in the experiment on OVCAR-5 ovarian, more than 100 µM; in the experiment on SNB-19 CNS, more than 100 µM; in the experiment on IGROV1 ovarian, more than 100 µM; in the experiment with MDA-MB-231 breast, 64.5 µM; in the experiment on K-562 leukemia it was more than 100 µM. Besides, the TGI with MDA-MB-435 is 38.4 µM; in the experiment with UACC-62 melanoma, more than 100 µM; with HCC-2998 colon it was 71.1 µM; in the experiment on LOX IMVI melanoma, 99.3 µM; with A549 NSCLC, more than 100 µM; with NCI-H226 lung, 75.6 µM.

Take `CC(Nc1cc(=O)n(C)c(=O)[nH]1)c1ccccc1` (stereo unspecified): the TGI in the experiment with A498 renal, with OVCAR-5 ovarian, in the experiment on SNB-19 CNS, in the experiment on IGROV1 ovarian, in the experiment with MDA-MB-231 breast and with K-562 leukemia was more than 100 µM each time. In addition, the TGI in the experiment with MDA-MB-435, in the experiment on UACC-62 melanoma, with HCC-2998 colon, in the experiment with LOX IMVI melanoma and with A549 NSCLC was more than 100 µM in each case.

Take `COC(=O)Nc1nc2ccc(NS(=O)(=O)c3ccc(F)cc3)cc2[nH]1`: the TGI in the experiment on A498 renal is more than 100 µM; in the experiment on OVCAR-5 ovarian it was more than 100 µM; in the experiment with SNB-19 CNS, more than 100 µM; with IGROV1 ovarian it was 9.93 µM; in the experiment with SK-OV-3 ovarian, more than 100 µM; with MDA-MB-231 breast it was more than 100 µM. The TGI is more than 100 µM with K-562 leukemia; 11.2 µM in the experiment with MDA-MB-435; more than 100 µM in the experiment with UACC-62 melanoma; more than 100 µM with LOX IMVI melanoma; more than 100 µM with A549 NSCLC; more than 100 µM in the experiment on NCI-H226 lung.

Regarding `CC[C@@]1(O)C(=O)OCc2c1cc1n(c2=O)Cc2c-1nc1ccccc1c2/C=N\NC(=O)C(N)=O`, the TGI is 9.81 µM with A498 renal; more than 100 µM in the experiment with OVCAR-5 ovarian; 9.65 µM in the experiment with SNB-19 CNS; 49.4 µM with IGROV1 ovarian; 27.5 µM with SK-OV-3 ovarian; more than 100 µM with MDA-MB-231 breast. Further, the TGI in the experiment with K-562 leukemia is more than 100 µM; with MDA-MB-435 it was more than 100 µM; in the experiment on UACC-62 melanoma, 3.54 µM; in the experiment on HCC-2998 colon it was more than 100 µM; in the experiment on LOX IMVI melanoma, 3.72 µM; with A549 NSCLC, more than 100 µM.

With `CCOc1ccc(C(c2c(O)c3ccccc3oc2=O)c2c(O)c3ccccc3oc2=O)cc1`, the TGI in the experiment on A498 renal, with OVCAR-5 ovarian, in the experiment on SNB-19 CNS, in the experiment with IGROV1 ovarian, in the experiment with SK-OV-3 ovarian and with MDA-MB-231 breast was more than 100 µM throughout. The TGI in the experiment with K-562 leukemia, in the experiment on MDA-MB-435, in the experiment on UACC-62 melanoma, in the experiment on LOX IMVI melanoma, in the experiment with A549 NSCLC and with NCI-H226 lung was more than 100 µM in each case.

For the compound `O=c1[nH]c2cc([N+](=O)[O-])c(N(CCO)CCO)c([N+](=O)[O-])c2[nH]1`, the TGI in the experiment on A498 renal was 66 µM; in the experiment on OVCAR-5 ovarian, more than 100 µM; with SNB-19 CNS, more than 100 µM; in the experiment with IGROV1 ovarian, more than 100 µM; in the experiment on SK-OV-3 ovarian, 89.7 µM; in the experiment with MDA-MB-231 breast, more than 100 µM. The TGI in the experiment with K-562 leukemia is more than 100 µM; in the experiment on MDA-MB-435, 91.7 µM; in the experiment with UACC-62 melanoma it was 72.1 µM; with LOX IMVI melanoma it was more than 100 µM; in the experiment on A549 NSCLC, more than 100 µM; in the experiment with NCI-H226 lung, 71.4 µM.
